Where two headings read alike, the source gives them in different places. Marks after values point to notes of the source that are not given here.
Columns and labels:
[1] = test system: vancomycin-resistant Enterococcus faecium isolate NTUH664 (DSE); type: cell-based; conditions: broth microdilution, cation-adjusted Mueller-Hinton broth + 50 μg/mL calcium
Procedure: (§1) Blood culture isolates were obtained from a clinical microbiology laboratory. Enterococcus spp. were identified using the Vitek 2 identification system (bioMérieux Inc., La Balme les Grottes, France). The MIC of vancomycin was determined using a Sensititre GPN3F (Trek Diagnostics, West Sussex, England). […] We used cation-adjusted Mueller-Hinton broth (Becton, Dickinson, Le Pont-de-Claix, France) supplemented with 50 μg/mL calcium. The MIC breakpoints were based on the CLSI criteria of interpretation ([15]).

[2] = test system: vancomycin-resistant Enterococcus faecium isolate NTUH688 (DNSE); type: cell-based; conditions: broth microdilution, cation-adjusted Mueller-Hinton broth + 50 μg/mL calcium
Procedure: as §1

[3] = human healthy volunteers, cited from earlier work; for cmax: mean
Procedure: Therefore, 45 mg/kg s.c. and 90 mg/kg s.c might represent human doses of 8 mg/kg and 12 mg/kg, respectively ([34]). […] Since the efficacy was much more pronounced in the infrequently administered dosing regimens, Cmax/MIC is likely the most predictive ([35], [36]). The selected rat dose from which to simulate the human dose is slightly different from the others ([37][–][39 ...

in vivo = conditions: male, Wistar, rat, plasma, SD
Procedure: The experiments were performed in triplicate. […] Plasma was collected via centrifugation, and the samples were stored at −80°C until analysis.
All of the UHPLC-ESI-MS/MS analyses were performed using an Agilent 1290 UHPLC system coupled with an Agilent 6460 triple quadrupole mass spectrometer (Agilent Technologies, Santa Clara, CA, USA).

[4] = test system: daptomycin-susceptible, dose-dependent Enterococcus faecium (NTUH664); test: Rat infective endocarditis model, DSE; conditions: for Bacterial load in blood / Rate of sterile vegetation / Bacterial load of vegetation: Wistar rat IE, DSE MIC 0.5 mg/L; for Bacterial load in blood / Bacterial load of vegetation: mean (SD); for Bacterial load in blood / Rate of sterile vegetation: n = 3; for Bacterial load of vegetation: sacrifice 24 h after last dose, n = 3, detection limit 2 log10 CFU/g; for veg_sterile: flag 1/0;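 on all read-outs here: male Wistar rats with catheter-induced aortic valve endocarditis, dosed for 3 days, CFU counted in vegetation and blood, saline-treated infected controls, vegetation detection limit 2 log10 CFU/g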
Procedure: Approval for animal use was obtained from the National Taiwan University Institutional Animal Care and Use Committee before the commencement of the experiments. Endocarditis was induced in male Wistar rats weighing ~330 g by using previously developed methodologies with slight modifications ([46]). To expose the right carotid artery for the placement of an intravascular catheter, the animals were anesthetized with 1 μL/g of Zoletil 50 (1 mg/mL) plus Rompun (23.32 mg/mL). A sterile polyethylene catheter (Intramedic PE-10; Clay Adams, Parsippany, NJ, USA) was inserted through a small incision and advanced 4 cm into the left ventricle. The catheter was ligated and left in place for the duration of the experiment. 24 h after the catheter was placed across the aortic valve, the bacterial inoculum, which was presuspended in saline, and 1 mL of 10^8 CFU/mL of VRE were administered intravenously via the tail vein. We evaluated the actual inoculum based on the CFU count. The rats received antibiotic treatment at 24 h or 48 h after the bacterial inoculation.
The animals were treated for 3 days. A group of infected but phosphate-buffered saline-treated rats was used as a control. 24 h after the last treatment, the animals were sacrificed via anesthetic overdose. The aortic valve vegetation and 1 mL of blood were obtained aseptically from the sacrificed animals, weighed, and homogenized in 1 mL of phosphate-buffered saline. Serial dilutions of homogenized tissues were performed, and 100 μL of each dilution, including the undiluted sample, were plated on brain heart infusion agar to enumerate the bacteria. The animals were included in the final analysis only if they survived the entire therapy and if their catheters were found across the aortic valve in the left ventricle. The detection limit of the bacterial load of vegetation was 2 log10 CFU/g.

[5] = DSE MIC 0.5, delay 24 h, 12 mg/kg iv, rat 1 of 3 (row order)
[6] = DSE MIC 0.5, delay 24 h, 12 mg/kg iv, rat 2 of 3 (row order)
[7] = DSE MIC 0.5, delay 24 h, 12 mg/kg iv, rat 3 of 3 (row order)
[8] = DSE MIC 0.5, delay 24 h, 45 mg/kg sc, rat 1 of 3 (row order)
[9] = DSE MIC 0.5, delay 24 h, 45 mg/kg sc, rat 2 of 3 (row order)
[10] = DSE MIC 0.5, delay 24 h, 45 mg/kg sc, rat 3 of 3 (row order)
[11] = DSE MIC 0.5, delay 24 h, 90 mg/kg sc, rat 1 of 3 (row order)
[12] = DSE MIC 0.5, delay 24 h, 90 mg/kg sc, rat 2 of 3 (row order)
[13] = DSE MIC 0.5, delay 24 h, 90 mg/kg sc, rat 3 of 3 (row order)
[14] = DSE MIC 0.5, delay 48 h, 12 mg/kg iv, rat 1 of 3 (row order)
[15] = DSE MIC 0.5, delay 48 h, 12 mg/kg iv, rat 2 of 3 (row order)
[16] = DSE MIC 0.5, delay 48 h, 12 mg/kg iv, rat 3 of 3 (row order)
[17] = DSE MIC 0.5, delay 48 h, 45 mg/kg sc, rat 1 of 3 (row order)
[18] = DSE MIC 0.5, delay 48 h, 45 mg/kg sc, rat 2 of 3 (row order)
[19] = DSE MIC 0.5, delay 48 h, 45 mg/kg sc, rat 3 of 3 (row order)
[20] = DSE MIC 0.5, delay 48 h, 90 mg/kg sc, rat 1 of 3 (row order)
[21] = DSE MIC 0.5, delay 48 h, 90 mg/kg sc, rat 2 of 3 (row order)
[22] = DSE MIC 0.5, delay 48 h, 90 mg/kg sc, rat 3 of 3 (row order)
[23] = 48 h from inoculation to treatment, 12 mg/kg/day i.v. 3 days, SD
[24] = 48 h from inoculation to treatment, 45 mg/kg/day s.c. 3 days, SD

CCCCCCCCCC(=O)N[C@@H](Cc1c[nH]c2ccccc12)C(=O)N[C@H](CC(N)=O)C(=O)N[C@@H](CC(=O)O)C(=O)N[C@@H]1C(=O)NCC(=O)N[C@@H](CCCN)C(=O)N[C@@H](CC(=O)O)C(=O)N[C@H](C)C(=O)N[C@@H](CC(=O)O)C(=O)NCC(=O)N[C@H](CO)C(=O)N[C@@H]([C@H](C)CC(=O)O)C(=O)N[C@@H](CC(=O)c2ccccc2N)C(=O)O[C@@H]1C [daptomycin, Daptomycin]
45600: veg_cfu [4, 17]
1: veg_sterile [4, 6] | veg_sterile [4, 7] | veg_sterile [4, 8] | veg_sterile [4, 9] | veg_sterile [4, 10] | veg_sterile [4, 11] | veg_sterile [4, 12] | veg_sterile [4, 13] | veg_sterile [4, 19] | veg_sterile [4, 20] | veg_sterile [4, 21] | veg_sterile [4, 22]
178000 ng/mL: cmax (in vivo; sc, 90 mg/kg)
100: Rate of sterile vegetation ([4]; 24 h from inoculation to treatment, 12 mg/kg/day i.v. 3 days) | Rate of sterile vegetation ([4]; 24 h from inoculation to treatment, 45 mg/kg/day s.c. 3 days) | Rate of sterile vegetation ([4]; 24 h from inoculation to treatment, 90 mg/kg/day s.c. 3 days) | Rate of sterile vegetation ([4]; 48 h from inoculation to treatment, 90 mg/kg/day s.c. 3 days)
1480: veg_cfu [4, 16]
0 log10 CFU/g: Bacterial load of vegetation ([4]; 48 h from inoculation to treatment, 90 mg/kg/day s.c. 3 days, 90 mg/kg/day)
4.66: log_veg_cfu [4, 17]
0 (0) log10 CFU/mL: Bacterial load in blood ([4]; 24 h from inoculation to treatment, 12 mg/kg/day i.v. 3 days, SD) | Bacterial load in blood ([4]; 24 h from inoculation to treatment, 45 mg/kg/day s.c. 3 days, SD) | Bacterial load in blood ([4]; 24 h from inoculation to treatment, 90 mg/kg/day s.c. 3 days, SD) | Bacterial load in blood [4, 23] | Bacterial load in blood [4, 24] | Bacterial load in blood ([4]; 48 h from inoculation to treatment, 90 mg/kg/day s.c. 3 days, SD)
1,277.4 (19.8) mg × h/L: AUC0–24 ([3]; 12 mg/kg i.v.)
106000 ng/mL: cmax (in vivo; iv, 12 mg/kg)
858.2 (24.9) mg × h/L: AUC0–24 ([3]; 8 mg/kg i.v.)
3.27 (0.11) log10 CFU/g: Bacterial load of vegetation [4, 23]
276 min: half-life (in vivo; iv, 12 mg/kg)
2500: veg_cfu [4, 14]
23900: veg_cfu [4, 18]
8 mg/L: daptomycin MIC [2]
183.7 (13.6) mg/L: cmax ([3]; daily dose 12 mg/kg i.v.)
4.38: log_veg_cfu [4, 18]
0 (0)^h^,^i log10 CFU/g: Bacterial load of vegetation ([4]; 48 h from inoculation to treatment, 90 mg/kg/day s.c. 3 days, 90 mg/kg/day, SD)
3.26: log_veg_cfu [4, 15]
3.3 h: Tmax (in vivo; sc, 45 mg/kg) | Tmax (in vivo; sc, 90 mg/kg)
174 min: half-life (in vivo; sc, 90 mg/kg)
180 min: half-life (in vivo; sc, 45 mg/kg)
0: blood_cfu [4, 5] | log_blood_cfu [4, 5] | log_veg_cfu [4, 5] | veg_cfu [4, 5] | blood_cfu [4, 6] | log_blood_cfu [4, 6] | log_veg_cfu [4, 6] | veg_cfu [4, 6] | blood_cfu [4, 7] | log_blood_cfu [4, 7] | log_veg_cfu [4, 7] | veg_cfu [4, 7] | blood_cfu [4, 8] | log_blood_cfu [4, 8] | log_veg_cfu [4, 8] | veg_cfu [4, 8] | blood_cfu [4, 9] | log_blood_cfu [4, 9] | log_veg_cfu [4, 9] | veg_cfu [4, 9] | blood_cfu [4, 10] | log_blood_cfu [4, 10] | log_veg_cfu [4, 10] | veg_cfu [4, 10] | blood_cfu [4, 11] | log_blood_cfu [4, 11] | log_veg_cfu [4, 11] | veg_cfu [4, 11] | blood_cfu [4, 12] | log_blood_cfu [4, 12] | log_veg_cfu [4, 12] | veg_cfu [4, 12] | blood_cfu [4, 13] | log_blood_cfu [4, 13] | log_veg_cfu [4, 13] | veg_cfu [4, 13] | blood_cfu [4, 14] | log_blood_cfu [4, 14] | blood_cfu [4, 15] | log_blood_cfu [4, 15] | blood_cfu [4, 16] | log_blood_cfu [4, 16] | blood_cfu [4, 17] | log_blood_cfu [4, 17] | blood_cfu [4, 18] | log_blood_cfu [4, 18] | blood_cfu [4, 19] | log_blood_cfu [4, 19] | log_veg_cfu [4, 19] | veg_cfu [4, 19] | blood_cfu [4, 20] | log_blood_cfu [4, 20] | log_veg_cfu [4, 20] | veg_cfu [4, 20] | blood_cfu [4, 21] | log_blood_cfu [4, 21] | log_veg_cfu [4, 21] | veg_cfu [4, 21] | blood_cfu [4, 22] | log_blood_cfu [4, 22] | log_veg_cfu [4, 22] | veg_cfu [4, 22] | Rate of sterile vegetation ([4]; 48 h from inoculation to treatment, 12 mg/kg/day i.v. 3 days) | Rate of sterile vegetation ([4]; 48 h from inoculation to treatment, 45 mg/kg/day s.c. 3 days) | veg_sterile [4, 14] | veg_sterile [4, 15] | veg_sterile [4, 16] | veg_sterile [4, 17] | veg_sterile [4, 18]
3.17: log_veg_cfu [4, 16]
0.5 mg/L: daptomycin MIC [1]
123000 ng/mL: cmax (in vivo; sc, 45 mg/kg)
4.75 (0.42)^g log10 CFU/g: Bacterial load of vegetation [4, 24]
0.3 h: Tmax (in vivo; iv, 12 mg/kg)
3.4: log_veg_cfu [4, 14]
1800: veg_cfu [4, 15]
123.3 (13.0) mg/L: cmax ([3]; daily dose 8 mg/kg i.v.)

Reference: publication PMC9603373 (Microbiology Spectrum, 2022)
